The text below walks through data of US4254123A, “Novel imidazoquinoxalines” (Roussel Uclaf, priority 1978, dated 1981).

Like-named read-outs stand apart in the source and are kept apart here.

In the assay the test system is Passive cutaneous anaphylaxis. Nature of the assay: Passive cutaneous anaphylaxis (PCA) in rats. Type of assay: in vivo. Particulars: dosed immediately prior to i.v. antigen/Evans blue challenge, blueing scored after 30 minutes; for ED50: Rattus norvegicus, 0.5 h. How it is done:
Cutaneous anaphylaxis can be induced in rats by intradermal (ID) sensitization with antiserum followed three days later by systemic challenge with antigen. Evans blue dye injected with the antigen is used as a marker to assess the severity of the local response. Anti-allergic drugs inhibit this reaction. […] Brown: Pergamon Press:-male rats weighing 180-220 grams are used in groups of seven.
1. Wash 120 grams of Al(OH)3 gel in 140 ml of saline (use of a macerater facilitates mixing).
2. Centrifuge at 3,000 r.p.m. for about 10 minutes.
3. Resuspend the precipitate with 300 ml of albumen egg powder (1.3 mg/ml) in saline and allow to stand for 30 minutes.
4. Centrifuge at 3,000 r.p.m. for 10 minutes.
5. Weigh the wet precipitate and to each gram weight add 1 ml of saline. Store in refrigerator (Quantity sufficient for 60 rats for a 3 day sensitization program).
1 ml of the alum precipitated ovalbumen was injected subcutaneously into rats weighing 180-200 grams on days 0,2,4. The rats were bled on day 14 either by cardiac puncture of via the dorsal abdominal aorta. Equal quantities of serum from each animal were pooled and thoroughly mixed and 2 ml aliquots were stored at -20° C. in plastic tubes.
(A) SENSITIZATION: The rats were anaesthetized with Nembutal (40-60 mg/kg i.p.) and were then sensitized by four ID injections (0.1 ml each) on their shaved backs. The animals were then left for a period of three days to develop sensitization.
The injections were speeded up by using an automatic 1 ml self-filling glass syringe. The "challenged" rats were killed after 30 minutes, (usually pithed) and their skin on the dorsal surface was removed. The degree and area of blueing, proportional to the anaphylactic reaction was assessed on a four point scoring system.
1. Total scores for sites 1,2,3 and 4=X
2. Mean value of X for each group=X
3. X t=X for test group; X c=X for control group [formula]

Where [1] appears, read: intravenous, read-out: ED 50 (dose of drug giving 50% inhibition), intravenously.

In the case of “7- and 8-chloro-imidazo-[1,2-a]-quinoxaline-2-carboxylic acid [Example 4]”, the “ED 50 (dose of drug giving 50% inhibition), intravenously” value (intravenous) was 0.12 mg/kg. For the same molecule, the “ED 50 (dose of drug giving 50% inhibition), orally” value (oral) is 0.71 mg/kg.
Regarding `O=C(O)c1cn2c(cnc3ccccc32)n1` [Example 1, Imidazo-[1,2-a]-quinoxaline-2-carboxylic acid], the ED50 came to 0.073 mg/kg under setting [1] and 0.73 mg/kg (oral, read-out: ED 50 (dose of drug giving 50% inhibition), orally).
Take `O=C(O)c1cn2c(cnc3cc(Cl)c(Cl)cc32)n1` [Example 3, 7,8-dichloro-imidazo-[1,2-a]-quinoxaline-2-carboxylic acid]: the ED50 under setting [1] was 0.2 mg/kg.
`CCOc1nc2ccccc2n2cc(C(=O)O)nc12` [Example 5, 4-ethoxy-imidazo-[1,2-a]-quinoxaline-2-carboxylic acid]: the ED50 under setting [1] is 0.83 mg/kg.
On to `NC(=O)c1nc2ccccc2n2cc(C(=O)O)nc12` [Example 6, 4-carbamoyl-imidazo-[1,2-a]-quinoxaline-2-carboxylic acid], for which the ED50 under setting [1] worked out at 3.13 mg/kg.
